Assay results published in publication PMC3454511 (The Journal of organic chemistry, 2012).
Converted amounts (≈) assume the structure as drawn.

Tests used:
Plasma stability, mouse = details: % parent remaining at 5 h
Plasma stability, human = details: % parent remaining at 5 h
[1] = Solubility in PBS and H2O, dry powder, 24 hour timepoint
[2] = Microsomal stability, human; details: % parent remaining at 1 hour
[3] = Microsomal stability, mouse; details: % parent remaining at 1 hour
[4] = Hepatocyte stability, mouse; details: % parent remaining at 2 hour
[5] = Plasma protein binding by rapid-equilibrium dialysis, mouse; details: 37 °C for 5 h
[6] = BBB parallel artificial membrane permeability assay; assay type: in vitro ADME; details: for BBB PAMPA: Pe; for Papp: PAMPA
[7] = Plasma protein binding by rapid-equilibrium dialysis, human; details: 37 °C for 5 h
[8] = Hepatocyte stability, human; details: % parent remaining at 2 hour
Caco-2 monolayer = test: Bidirectional Caco-2 permeability; assay type: in vitro ADME; details: for Caco-2 A-B: A-B direction; for Caco-2 B-A: B-A direction
physchem = details: thermodynamic from solid
[9] = Bidirectional Caco-2 permeability; assay type: in vitro ADME; details: human, Caco-2

| Compound | plasma stability mouse (Plasma stability, mouse) [% remaining] | plasma stability human (Plasma stability, human) [% remaining] | solubility H2O [1] [µM] | solubility PBS [1] [µM] | microsomal stability human [2] [% remaining] | microsomal stability mouse [3] [% remaining] | hepatocytes mouse [4] [% remaining] | protein binding mouse [5] [% bound] | BBB PAMPA [6] | protein binding human [7] [% bound] | hepatocytes human [8] [% remaining] | Caco-2 A-B (Caco-2 monolayer) | Caco-2 B-A (Caco-2 monolayer) | solubility at 24 h (physchem; PBS, aqueous buffer) [µM] | solubility at 24 h (physchem; water) [µM] | Papp [6] [×10⁻⁶ cm/s] | Papp A→B [9] [×10⁻⁶ cm/s] | Papp B→A [9] [×10⁻⁶ cm/s] |
| --- | --- | --- | --- | --- | --- | --- | --- | --- | --- | --- | --- | --- | --- | --- | --- | --- | --- | --- |
| CCCN1C(CO)C2c3ccccc3N(C(C)=O)CC21 (racemic) [31b, 1-((±)-1-(Hydroxymethyl)-2-propyl-1,2a,3,8b-tetrahydroazeto[2,3-c]quinolin-4 (2H)-yl) ethanone] | 98 | 106 | 496 (≈ 136 µg/mL) | 489 (≈ 134 µg/mL) | 88 | 64 | 71 | 20 | 14 10^−6 cm s^−1 | 18 | 32 | 48 10^−6 cm.s^−1 | 51 10^−6 cm.s^−1 |  |  |  |  |  |
| CCCN1C(CO)C2c3ccccc3N(S(C)(=O)=O)CC21 (racemic) [31c, ((±)-4-(Methylsulfonyl)-2-propyl-1,2,2a,3,4,8b-hexahydroazeto[2,3-c]quinolin-1-yl) methanol] | 107 | 101 | >500 | 478 (≈ 148 µg/mL) | 69 | 34 |  | 50 | 35 10^−6 cm s^−1 | 45 |  | 56 10^−6 cm.s^−1 | 64 10^−6 cm.s^−1 |  |  |  |  |  |
| CCCN1[C@H](CO)[C@H](c2ccccc2)[C@@H]1C#N [26a, (2R,3R,4S)-4-(Carbonitrile)-3-phenyl-1-propylazetidine-2-hydroxymethyl] | 110 | 109 | >500 | 402 (≈ 92.6 µg/mL) | 88 | 62 | 59 | 65 |  | 65 | 54 | 67 10^−6 cm.s^−1 | 49 10^−6 cm.s^−1 |  |  |  |  |  |
| CCCN1[C@H](CO)[C@H](c2ccccc2)[C@@H]1CN [26b, ((2S,3R,4R)-4-(Aminomethyl)-3-phenyl-1-propylazetidin-2-yl)methanol] | 100 | 92 | >500 | >500 | 73 | 68 | 103 | 19 | 83 10^−6 cm s^−1 | 7 | 103 | 16 10^−6 cm.s^−1 | 8 10^−6 cm.s^−1 |  |  |  |  |  |
| CCCN1C2CN(C(C)=O)CC1C2c1ccccc1 (stereo not shown) [27b] | 94 | 83 | 483 (≈ 125 µg/mL) | 476 (≈ 123 µg/mL) | 93 | 93 | 94 | 13 | 15 10^−6 cm s^−1 | 23 | 104 | 54 10^−6 cm.s^−1 | 56 10^−6 cm.s^−1 |  |  |  |  |  |
| CCCN1C2CN(S(C)(=O)=O)CC1C2c1ccccc1 (stereo not shown) [27c, 3-(Methylsulfonyl)-7-phenyl-6-propyl-3,6-diazabicyclo[3.1.1]heptane] | 102 | 113 |  |  | 86 | 72 | 67 | 39 |  | 31 | 72 |  |  | 470 (≈ 138 µg/mL) | 490 (≈ 144 µg/mL) | 31 | 66 | 54 |
| OC[C@@H]1[C@H](c2ccc(Br)cc2)[C@@H]2CNCCCCN12 [29a, ((8R,9R,10S)-9-(4-Bromophenyl)-1,6-diazabicyclo[6.2.0]decan-10-yl) methanol] | 94 | 97 |  |  | 96 | 98 | 99 | 46 |  | 24 | 104 |  |  | 485 (≈ 158 µg/mL) | 388 (≈ 126 µg/mL) | 14 | 14 | 32 |
